Here are results for 20 molecules from US20250099478A1, “PLASMA KALLIKREIN INHIBITORS” (Merck Sharp & Dohme LLC, priority 2022, published 2025).

This test deals with T1, Human plasma kallikrein (Homo sapiens, UniProt P03952).
T1 construct: yields a heavy chain (371 amino acids) and a light chain (248 amino acids); purchased Enzyme Research Laboratories
T1 sequence (P03952 391-638 limits assumed): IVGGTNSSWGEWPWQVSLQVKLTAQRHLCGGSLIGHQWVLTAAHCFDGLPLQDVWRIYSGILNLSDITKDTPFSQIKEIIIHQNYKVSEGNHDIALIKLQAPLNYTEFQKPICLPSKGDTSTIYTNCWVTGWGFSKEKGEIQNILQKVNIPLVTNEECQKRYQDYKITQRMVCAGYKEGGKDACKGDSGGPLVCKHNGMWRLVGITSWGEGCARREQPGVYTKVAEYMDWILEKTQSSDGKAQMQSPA
T1 sequence (P03952 20-390 partner limits assumed): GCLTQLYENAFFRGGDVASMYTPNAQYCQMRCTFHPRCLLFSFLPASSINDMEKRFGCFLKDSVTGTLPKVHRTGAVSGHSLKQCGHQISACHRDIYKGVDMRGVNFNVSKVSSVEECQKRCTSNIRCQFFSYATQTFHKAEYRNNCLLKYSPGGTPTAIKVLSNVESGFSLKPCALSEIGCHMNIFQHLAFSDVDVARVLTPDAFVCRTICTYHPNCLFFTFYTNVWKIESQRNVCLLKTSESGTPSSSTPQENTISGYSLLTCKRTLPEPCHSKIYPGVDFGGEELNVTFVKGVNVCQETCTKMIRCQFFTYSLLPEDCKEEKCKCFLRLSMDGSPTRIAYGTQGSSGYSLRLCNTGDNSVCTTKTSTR
Briefly: Plasma Kallikrein Assay. The test is classed as biochemical. As to conditions: purified Human plasma kallikrein 0.5 nM, substrate Acetyl-K-P-R-AFC; read-out: PKal IC50. The method, then: The effectiveness of a compound of the present invention as an inhibitor of plasma kallikrein can be determined using a relevant purified serine protease, and an appropriate synthetic substrate. The rate of hydrolysis of the chromogenic or fluorogenic substrate by the relevant serine protease was measured both in the absence and presence of compounds of the present invention. Assays were conducted at rt or at 37° C. […] A decrease in the rate of fluorescence change in the presence of inhibitor is indicative of enzyme inhibition. Such methods are known to one skilled in the art. The results of this assay are expressed as the half-maximal inhibitory concentrations (IC50), or the inhibitory constant, Ki.
Plasma kallikrein determinations were made in 50 mM HEPES buffer at pH 7.4 containing 150 mM NaCl, 5 mM CaCl2), and 0.1% PEG 8000 (polyethylene glycol; Fisher Scientific). Determinations were made using purified Human plasma kallikrein at a final concentration of 0.5 nM (Enzyme Research Laboratories) and the synthetic substrate, Acetyl-K-P-R-AFC (Sigma #C6608) at a concentration of […].
Times required to achieve equilibration between enzyme and inhibitor were determined in control experiments. […] IC50 was determined by inflection point from a four parameter logistic curve fit. Ki was calculated using the Cheng Prusoff equation, Ki=IC50/(1+([S]/Km)).
What is called IC50 is the concentration that inhibits the measured activity by half. On to `O=C1Nc2ccc(Cl)c(F)c2[C@]2(CCN(C(=O)C3(F)CCN(Cc4ccc(Cn5ccccc5=O)cc4)CC3)C2)O1` [Example 138, (4S)-6-Chloro-5-fluoro-1′-(4-fluoro-1-(4-((2-oxopyridin-1(2H)-yl)methyl)benzyl)piperidine-4-carbonyl)spiro[benzo[d][1,3]oxazine-4,3′-pyrrolidin]-2(1H)-one], for which the IC50 is 5.6 nM.

As for `O=C1Nc2ccc(Cl)c(F)c2[C@@]2(CCCN(C(=O)c3nc(C(O)c4ccc(F)cc4)n[nH]3)C2)O1` (stereo partly drawn) [Example 127, (4R)-6-Chloro-5-fluoro-1′-(3-((4-fluorophenyl)(hydroxy)methyl)-1H-1,2,4-triazole-5-carbonyl)spiro[benzo[d][1,3]oxazine-4,3′-piperidin]-2(1H)-one], the IC50 stood at 39.9 nM.

With `O=C1Nc2ccc(Cl)c(F)c2[C@@]2(CCCN(C(=O)c3nnc(Cc4cccc(OC(F)F)c4)[nH]3)C2)O1` [Example 90, (R)-6-Chloro-1′-(5-(3-(difluoromethoxy)benzyl)-4H-1,2,4-triazole-3-carbonyl)-5-fluorospiro[benzo[d][1,3]oxazine-4,3′-piperidin]-2(1H)-one], the IC50 is 33.4 nM.

Turning to `Cn1cc(-c2ccc(Cc3nnc(C(=O)N4CCC[C@@]5(C4)OC(=O)Nc4ccc(Cl)c(F)c45)[nH]3)cc2)cn1` [Example 91, (R)-6-Chloro-5-fluoro-1′-(5-(4-(1-methyl-1H-pyrazol-4-yl)benzyl)-4H-1,2,4-triazole-3-carbonyl)spiro[benzo[d][1,3]oxazine-4,3′-piperidin]-2(1H)-one], the IC50 stood at 25.2 nM.

Take `O=C1Nc2ccc(Cl)c(F)c2[C@@]2(CCCN(C(=O)c3cnn(Cc4ccc(-c5c[nH]c(=O)o5)cc4)c3)C2)O1` [Example 53, (R)-6-Chloro-5-fluoro-1′-(1-(4-(2-oxo-2,3-dihydrooxazol-5-yl)benzyl)-1H-pyrazole-4-carbonyl)spiro[benzo[d][1,3]oxazine-4,3′-piperidin]-2(1H)-one]: the half-maximal inhibitory concentration (IC50) amounted to 18.5 nM.

As to `O=C1Nc2ccc(Cl)c(F)c2[C@]2(CCN(C(=O)C3CCN(Cc4ccc(Cn5ccccc5=O)cc4)C3)C2)O1` (single isomer, unassigned) [Example 137], the concentration for half-maximal inhibition (IC50) worked out at 31 nM.

In the case of `O=C(O)COc1ccc(Cn2cc(C(=O)N3CCC[C@@]4(C3)OC(=O)Nc3ccc(Cl)c(F)c34)cn2)cc1` [Example 52, (R)-2-(4-((4-(6-Chloro-5-fluoro-2-oxo-1,2-dihydrospiro[benzo[d][1,3]oxazine-4,3′-piperidine]-1′-carbonyl)-1H-pyrazol-1-yl)methyl)phenoxy)acetic acid], the IC50 was 24.1 nM.

Consider `C[C@@H](c1cccc(Cl)c1)n1cc(C(=O)N2CCC[C@@]3(C2)OC(=O)Nc2ccc(Cl)c(F)c23)cn1` [Example 27, (R)-6-Chloro-1′-(1-((S)-1-(3-chlorophenyl)ethyl)-1H-pyrazole-4-carbonyl)-5-fluorospiro[benzo[d][1,3]oxazine-4,3′-piperidin]-2(1H)-one], for which the IC50 turned out to be 10.9 nM.

Take `CC1CN(C(=O)c2cnn(Cc3ccccc3)c2)C[C@]2(C1)OC(=O)Nc1ccc(Cl)c(F)c12` (stereo partly drawn) [Example 20, (4R)-1′-(1-Benzyl-1H-pyrazole-4-carbonyl)-6-chloro-5-fluoro-5′-methylspiro[benzo[d][1,3]oxazine-4,3′-piperidin]-2(1H)-one]: the IC50 came to 28.1 nM.

In the case of `COC(=O)c1ccc(Cn2cc(C(=O)N3CCC[C@@]4(C3)OC(=O)Nc3ccc(Cl)c(F)c34)cn2)cc1F` [Example 49, Methyl (R)-4-((4-(6-chloro-5-fluoro-2-oxo-1,2-dihydrospiro[benzo[d][1,3]oxazine-4,3′-piperidine]-1′-carbonyl)-1H-pyrazol-1-yl)methyl)-2-fluorobenzoate], the concentration for half-maximal inhibition (IC50) came to 47 nM.

Consider `O=C1Nc2ccc(Cl)c(F)c2[C@@]2(CCCN(C(=O)c3cnn(Cc4cccc(C5CC5)c4)c3)C2)O1` [Example 10, (R)-6-Chloro-1′-(1-(3-cyclopropylbenzyl)-1H-pyrazole-4-carbonyl)-5-fluorospiro[benzo[d][1,3]oxazine-4,3′-piperidin]-2(1H)-one], for which the IC50 came to 26.8 nM.

Turning to `CC1(C)CN(C(=O)c2cnn(Cc3ccccc3)c2)C[C@]2(C1)OC(=O)Nc1ccc(Cl)c(F)c12` [Example 21, (R)-1′-(1-Benzyl-1H-pyrazole-4-carbonyl)-6-chloro-5-fluoro-5′,5′-dimethylspiro[benzo[d][1,3]oxazine-4,3′-piperidin]-2(1H)-one], the IC50 stood at 12.1 nM.

With `O=C1Nc2ccc(Cl)c(F)c2[C@@]2(CCCN(C(=O)c3nnc(Cc4ccc(F)c(Cl)c4)[nH]3)C2)O1` [Example 87, (R)-6-Chloro-1′-(5-(3-chloro-4-fluorobenzyl)-4H-1,2,4-triazole-3-carbonyl)-5-fluorospiro[benzo[d][1,3]oxazine-4,3′-piperidin]-2(1H)-one], the half-maximal inhibitory concentration (IC50) worked out at 49.7 nM.

Consider `C[C@H](c1cccc(Cl)c1)n1cc(C(=O)N2CCC[C@@]3(C2)OC(=O)Nc2ccc(Cl)c(F)c23)cn1` (single isomer, unassigned) [Example 28], for which the IC50 stood at 10.4 nM.

On to `O=C1Nc2ccc(Cl)c(F)c2[C@@]2(CCCN(C(=O)c3cnn(Cc4noc5ccccc45)c3)C2)O1` [Example 17, (R)-1′-(1-(Benzo[d]isoxazol-3-ylmethyl)-1H-pyrazole-4-carbonyl)-6-chloro-5-fluorospiro[benzo[d][1,3]oxazine-4,3′-piepridin]-2(1H)-one], for which the IC50 was found to be 37.8 nM.

For the molecule `O=C1Nc2ccc(Cl)c(F)c2[C@@]2(CCCN(C(=O)c3cnn(Cc4cccc(C5CC5)c4)c3)C2)O1` [Example 48, (R)-6-Chloro-1′-(1-(3-cyclopropylbenzyl)-1H-pyrazole-4-carbonyl)-5-fluorospiro[benzo[d][1,3]oxazine-4,3′-piperidin]-2(1H)-one], the IC50 is 32.6 nM.

Consider `COc1ccc(Cl)cc1Cn1cc(C(=O)N2CCC[C@@]3(C2)OC(=O)Nc2ccc(Cl)c(F)c23)cn1` [Example 13, (R)-6-Chloro-1′-(1-(5-chloro-2-methoxybenzyl)-1H-pyrazole-4-carbonyl)-5-fluorospiro[benzo[d][1,3]oxazine-4,3′-piperidin]-2(1H)-one], for which the IC50 came out at 37.6 nM.

Consider `O=C1Nc2ccc(Cl)c(F)c2[C@@]2(CCCN(C(=O)c3cnn(Cc4ccc(F)c(N5CCC5)c4)c3)C2)O1` [Example 8, (R)-1′-(1-(3-(Azetidin-1-yl)-4-fluorobenzyl)-1H-pyrazole-4-carbonyl)-6-chloro-5-fluorospiro[benzo[d][1,3]oxazine-4,3′-piperidin]-2(1H)-one], for which the 50% inhibitory concentration (IC50) amounted to 34.1 nM.

With `O=C1Nc2ccc(Cl)c(F)c2[C@@]2(CCCN(C(=O)c3nnc(Cc4ccc5c(c4)CCO5)[nH]3)C2)O1` [Example 117, (R)-6-Chloro-1′-(5-((2,3-dihydrobenzofuran-5-yl)methyl)-4H-1,2,4-triazole-3-carbonyl)-5-fluorospiro[benzo[d][1,3]oxazine-4,3′-piperidin]-2(1H)-one], the concentration for half-maximal inhibition (IC50) was found to be 34.8 nM.

Take `O=C1Nc2ccc(Cl)c(F)c2[C@@]2(CCCN(C(=O)c3nnc(Cc4cccc(Cl)c4)[nH]3)C2)O1` [Example 118, (R)-6-Chloro-1′-(5-(3-chlorobenzyl)-4H-1,2,4-triazole-3-carbonyl)-5-fluorospiro[benzo[d][1,3]oxazine-4,3′-piperidin]-2(1H)-one]: the IC50 was 29.2 nM.
